These results are taken from patent publication US9850283B2, “Macrocyclic inhibitors of the PD-1/PD-L1 and CD80(B7-1)/PD-L1 protein/protein interactions” (BRISTOL-MYERS SQUIBB COMPANY, priority 2013, dated 2017).

Test [1] concerns the target T1, LK35.2-hPD-L1 cells / PE-labeled PD-1-Ig (Homo sapiens, UniProt Q9NZQ7).
T1 construct: expressed in transfected cells; host or cells: LK35.2 mouse B cell line
Kind of test: LK35.2-hPD-L1 cell binding high-content screening assay. It counts as cell-based. The conditions noted are these: cluster symbol; cell line of CBA not given (LK35.2-hPD-L1 or 293T-hPD-L1); read-out: CBA IC50 cluster. The method in brief: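 Binding of PE-conjugated human PD-1-Ig (1 nM final) to human PD-L1 stably expressed on a mouse B-cell line (LK35.2) was measured by high-content imaging after washes. Compound and labeled PD-1-Ig were co-incubated 1 h at 37 °C with cells in RPMI/10% FCS.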

The next test concerns the target T2, Human PD-L1/PD-1 (Homo sapiens, UniProt Q9NZQ7).
T2 construct: made in house; host or cells: HEK293T
The test is described as follows: HTRF PD-1-Ig/PD-L1-His binding assay (human PD-L1). The note with it: cluster symbol; read-out: HTRF IC50 cluster. In a few lines: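 Readout: time-resolved FRET between Eu cryptate-labeled anti-Ig (1 nM final) and APC-labeled anti-His (20 nM final) antibodies. These detect interaction of Fc-fused PD-1 with His-tagged human PD-L1 in dPBS containing 0.1% BSA and 0.05% Tween-20.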

SMILES strings stand for the structures. Starred links: 1 amine or outer side, 2 acyl side, 3 side chain; linkers in the order of their positions; H or OH if unused. Positions of bridges follow the written chain, without caps; N, C: chain ends. Non-standard residues stand in square brackets, D forms with d. Residues, ends and D or L forms follow the SMILES beside them. X18 = CS(=O)(=O)Nc1ccc(C[C@H](N[*:1])C(=O)[*:2])cc1; Phe(3,4-(OMe)2) = COc1ccc(C[C@H](N)C(=O)O)cc1OC; Phe(3,4-Cl2) = N[C@@H](Cc1ccc(Cl)c(Cl)c1)C(=O)O; Phe(3-CF3) = N[C@@H](Cc1cccc(C(F)(F)F)c1)C(=O)O; Phe(3,4-F2) = N[C@@H](Cc1ccc(F)c(F)c1)C(=O)O; Phe(3-Cl) = N[C@@H](Cc1cccc(Cl)c1)C(=O)O; Phe(2-Cl) = N[C@@H](Cc1ccccc1Cl)C(=O)O; Phe(2-Me) = Cc1ccccc1C[C@H](N)C(=O)O; NMeNle = CCCC[C@H](NC)C(=O)O; NMeA = CN[C@@H](C)C(=O)O; Sar = CNCC(=O)O

T1 sequence (Q9NZQ7 19-290): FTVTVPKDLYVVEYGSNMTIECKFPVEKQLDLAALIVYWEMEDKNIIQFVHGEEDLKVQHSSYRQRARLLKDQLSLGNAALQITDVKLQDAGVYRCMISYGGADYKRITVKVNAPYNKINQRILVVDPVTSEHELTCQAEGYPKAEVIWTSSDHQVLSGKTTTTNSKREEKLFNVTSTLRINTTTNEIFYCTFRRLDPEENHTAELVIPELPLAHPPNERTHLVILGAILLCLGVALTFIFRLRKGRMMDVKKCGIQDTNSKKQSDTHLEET
T2 sequence (Q9NZQ7 with tags, fused parts or gaps): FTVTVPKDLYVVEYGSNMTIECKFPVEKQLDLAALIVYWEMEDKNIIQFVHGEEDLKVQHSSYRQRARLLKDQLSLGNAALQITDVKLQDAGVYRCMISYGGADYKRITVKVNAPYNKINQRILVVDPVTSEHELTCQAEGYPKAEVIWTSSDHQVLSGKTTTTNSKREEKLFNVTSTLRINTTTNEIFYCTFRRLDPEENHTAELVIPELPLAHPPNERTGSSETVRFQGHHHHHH

For the compound `CCCC[C@H]1C(=O)N(C)[C@@H](CCCC)C(=O)N[C@@H](CCCNC(=N)N)C(=O)N[C@H](C(=O)NCC(N)=O)CSCC(=O)N[C@@H](Cc2ccc(NS(C)(=O)=O)cc2)C(=O)N(C)[C@@H](C)C(=O)N[C@@H](CC(N)=O)C(=O)N2CCC[C@H]2C(=O)N[C@@H](Cc2cnc[nH]2)C(=O)N[C@@H](CC(C)C)C(=O)N(C)CC(=O)N[C@@H](Cc2c[nH]c3ccccc23)C(=O)N[C@@H](CO)C(=O)N[C@@H](Cc2c[nH]c3ccccc23)C(=O)N1C` [Example 1100] ({CH2CO}-[X18][NMeA]NPHL[Sar]WSW[NMeNle][NMeNle]RCG-NH2; thioether N-14), the concentration for half-maximal inhibition (IC50) in test [1] is above 74.3 nM; at Human PD-L1/PD-1, above 30.5 nM.
As for `CCCC[C@H]1C(=O)N(C)[C@@H](CCCC)C(=O)N[C@@H](CCCNC(=N)N)C(=O)N[C@H](C(=O)NCC(N)=O)CSCC(=O)N[C@@H](Cc2ccccc2Cl)C(=O)N(C)[C@@H](C)C(=O)N[C@@H](CC(N)=O)C(=O)N2CCC[C@H]2C(=O)N[C@@H](Cc2cnc[nH]2)C(=O)N[C@@H](CC(C)C)C(=O)N(C)CC(=O)N[C@@H](Cc2c[nH]c3ccccc23)C(=O)N[C@@H](CO)C(=O)N[C@@H](Cc2c[nH]c3ccccc23)C(=O)N1C` [Example 1101] ({CH2CO}-[Phe(2-Cl)][NMeA]NPHL[Sar]WSW[NMeNle][NMeNle]RCG-NH2; thioether N-14), the IC50 was above 74.3 nM in test [1] and above 30.5 nM on Human PD-L1/PD-1.
On to `CCCC[C@H]1C(=O)N(C)[C@@H](CCCC)C(=O)N[C@@H](CCCNC(=N)N)C(=O)N[C@H](C(=O)NCC(N)=O)CSCC(=O)N[C@@H](Cc2cccc(Cl)c2)C(=O)N(C)[C@@H](C)C(=O)N[C@@H](CC(N)=O)C(=O)N2CCC[C@H]2C(=O)N[C@@H](Cc2cnc[nH]2)C(=O)N[C@@H](CC(C)C)C(=O)N(C)CC(=O)N[C@@H](Cc2c[nH]c3ccccc23)C(=O)N[C@@H](CO)C(=O)N[C@@H](Cc2c[nH]c3ccccc23)C(=O)N1C` [Example 1102] ({CH2CO}-[Phe(3-Cl)][NMeA]NPHL[Sar]WSW[NMeNle][NMeNle]RCG-NH2; thioether N-14), for which the IC50 in test [1] was above 74.3 nM; on Human PD-L1/PD-1 it was above 30.5 nM.
On to `CCCC[C@H]1C(=O)N(C)[C@@H](CCCC)C(=O)N[C@@H](CCCNC(=N)N)C(=O)N[C@H](C(=O)NCC(N)=O)CSCC(=O)N[C@@H](Cc2ccc(Cl)c(Cl)c2)C(=O)N(C)[C@@H](C)C(=O)N[C@@H](CC(N)=O)C(=O)N2CCC[C@H]2C(=O)N[C@@H](Cc2cnc[nH]2)C(=O)N[C@@H](CC(C)C)C(=O)N(C)CC(=O)N[C@@H](Cc2c[nH]c3ccccc23)C(=O)N[C@@H](CO)C(=O)N[C@@H](Cc2c[nH]c3ccccc23)C(=O)N1C` [Example 1103] ({CH2CO}-[Phe(3,4-Cl2)][NMeA]NPHL[Sar]WSW[NMeNle][NMeNle]RCG-NH2; thioether N-14), for which the IC50 in test [1] was 4.78 to 72.9 nM; on Human PD-L1/PD-1 it was 6.76 to 30.3 nM.
For `CCCC[C@H]1C(=O)N(C)[C@@H](CCCC)C(=O)N[C@@H](CCCNC(=N)N)C(=O)N[C@H](C(=O)NCC(N)=O)CSCC(=O)N[C@@H](Cc2ccc(F)c(F)c2)C(=O)N(C)[C@@H](C)C(=O)N[C@@H](CC(N)=O)C(=O)N2CCC[C@H]2C(=O)N[C@@H](Cc2cnc[nH]2)C(=O)N[C@@H](CC(C)C)C(=O)N(C)CC(=O)N[C@@H](Cc2c[nH]c3ccccc23)C(=O)N[C@@H](CO)C(=O)N[C@@H](Cc2c[nH]c3ccccc23)C(=O)N1C` [Example 1104] ({CH2CO}-[Phe(3,4-F2)][NMeA]NPHL[Sar]WSW[NMeNle][NMeNle]RCG-NH2; thioether N-14), the concentration for half-maximal inhibition (IC50) in test [1] was 4.78 to 72.9 nM; at Human PD-L1/PD-1, 6.76 to 30.3 nM.
For `CCCC[C@H]1C(=O)N(C)[C@@H](CCCC)C(=O)N[C@@H](CCCNC(=N)N)C(=O)N[C@H](C(=O)NCC(N)=O)CSCC(=O)N[C@@H](Cc2ccc(OC)c(OC)c2)C(=O)N(C)[C@@H](C)C(=O)N[C@@H](CC(N)=O)C(=O)N2CCC[C@H]2C(=O)N[C@@H](Cc2cnc[nH]2)C(=O)N[C@@H](CC(C)C)C(=O)N(C)CC(=O)N[C@@H](Cc2c[nH]c3ccccc23)C(=O)N[C@@H](CO)C(=O)N[C@@H](Cc2c[nH]c3ccccc23)C(=O)N1C` [Example 1105] ({CH2CO}-[Phe(3,4-(OMe)2)][NMeA]NPHL[Sar]WSW[NMeNle][NMeNle]RCG-NH2; thioether N-14), the IC50 in test [1] was 4.78 to 72.9 nM; on Human PD-L1/PD-1 it was 6.76 to 30.3 nM.
Turning to `CCCC[C@H]1C(=O)N(C)[C@@H](CCCC)C(=O)N[C@@H](CCCNC(=N)N)C(=O)N[C@H](C(=O)NCC(N)=O)CSCC(=O)N[C@@H](Cc2ccccc2C)C(=O)N(C)[C@@H](C)C(=O)N[C@@H](CC(N)=O)C(=O)N2CCC[C@H]2C(=O)N[C@@H](Cc2cnc[nH]2)C(=O)N[C@@H](CC(C)C)C(=O)N(C)CC(=O)N[C@@H](Cc2c[nH]c3ccccc23)C(=O)N[C@@H](CO)C(=O)N[C@@H](Cc2c[nH]c3ccccc23)C(=O)N1C` [Example 1106] ({CH2CO}-[Phe(2-Me)][NMeA]NPHL[Sar]WSW[NMeNle][NMeNle]RCG-NH2; thioether N-14), the IC50 lay within 4.78 to 72.9 nM in test [1] and 6.76 to 30.3 nM on Human PD-L1/PD-1.
As for `CCCC[C@H]1C(=O)N(C)[C@@H](CCCC)C(=O)N[C@@H](CCCNC(=N)N)C(=O)N[C@H](C(=O)NCC(N)=O)CSCC(=O)N[C@@H](Cc2cccc(C(F)(F)F)c2)C(=O)N(C)[C@@H](C)C(=O)N[C@@H](CC(N)=O)C(=O)N2CCC[C@H]2C(=O)N[C@@H](Cc2cnc[nH]2)C(=O)N[C@@H](CC(C)C)C(=O)N(C)CC(=O)N[C@@H](Cc2c[nH]c3ccccc23)C(=O)N[C@@H](CO)C(=O)N[C@@H](Cc2c[nH]c3ccccc23)C(=O)N1C` [Example 1107] ({CH2CO}-[Phe(3-CF3)][NMeA]NPHL[Sar]WSW[NMeNle][NMeNle]RCG-NH2; thioether N-14), the results for the IC50 (in test [1]; at Human PD-L1/PD-1) were above 74.3 nM and above 30.5 nM, respectively.
For `CC(C)C[C@@H]1NC(=O)[C@H](Cc2cnc[nH]2)NC(=O)[C@@H]2CCCN2C(=O)[C@H](CC(N)=O)NC(=O)[C@H](C)N(C)C(=O)[C@H](Cc2ccccc2)NC(=O)CSC[C@@H](C(=O)NCC(N)=O)NC(=O)[C@H](CCCNC(=N)N)NC(=O)[C@H](C)N(C)C(=O)[C@H](CCCc2ccccc2)NC(=O)[C@H](Cc2c[nH]c3ccccc23)NC(=O)[C@H](CO)NC(=O)[C@H](Cc2c[nH]c3ccccc23)NC(=O)CN(C)C1=O` [Example 1108] (HELM PEPTIDE1{[O=C(C[*:3])[*:2]].F.[meA].N.P.H.L.[Sar].W.S.W.[O=C([C@H](CCCc1ccccc1)N[*:1])[*:2]].[meA].R.C.G.[am]}$PEPTIDE1,PEPTIDE1,1:R3-15:R3$$$V2.0) the same measures were above 74.3 nM and above 30.5 nM.
With `CCCC[C@H]1C(=O)N(C)[C@@H](CCCC)C(=O)N[C@@H](CCCNC(=N)N)C(=O)N[C@H](C(=O)NCC(N)=O)CSCC(=O)N[C@@H](Cc2ccccc2)C(=O)N(C)[C@@H](C)C(=O)N[C@@H](CC(N)=O)C(=O)N2CCC[C@H]2C(=O)N[C@@H](Cc2cnc[nH]2)C(=O)N[C@@H](CC(C)C)C(=O)NC(C)(C)C(=O)N[C@@H](Cc2c[nH]c3ccccc23)C(=O)N[C@@H](CO)C(=O)N[C@@H](Cc2c[nH]c3ccccc23)C(=O)N1C` [Example 1110], the results for the IC50 (in test [1]; on Human PD-L1/PD-1) were above 74.3 nM and above 30.5 nM, respectively.

In general, IC50 refers to the concentration at which inhibition is half-maximal.
